{
  "source": "paper PMC8301998",
  "about": "“Discovery of Novel Allosteric Modulators Targeting an Extra-Helical Binding Site of GLP-1R Using Structure- and Ligand-Based Virtual Screening” (Biomolecules, 2021)",
  "key": {"GLP-1R [1]": {"target": "T1, GLP-1R (Homo sapiens, UniProt P43220)", "T1 sequence (P43220 24-463)": "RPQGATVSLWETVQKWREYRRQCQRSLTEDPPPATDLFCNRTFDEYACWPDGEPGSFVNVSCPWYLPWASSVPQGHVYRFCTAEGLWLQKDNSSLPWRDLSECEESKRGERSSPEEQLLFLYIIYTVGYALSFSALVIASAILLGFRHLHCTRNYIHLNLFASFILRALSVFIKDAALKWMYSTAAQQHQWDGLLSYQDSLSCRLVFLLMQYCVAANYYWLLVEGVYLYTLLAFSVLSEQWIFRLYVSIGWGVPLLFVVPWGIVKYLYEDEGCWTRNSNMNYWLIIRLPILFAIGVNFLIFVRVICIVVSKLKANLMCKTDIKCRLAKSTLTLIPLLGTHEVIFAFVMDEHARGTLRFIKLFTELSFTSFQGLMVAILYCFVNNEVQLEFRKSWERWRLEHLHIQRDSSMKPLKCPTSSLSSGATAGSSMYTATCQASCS", "details": "for Effect on binding of GLP-1 to GLP-1R (in words): radiolabeled GLP-1, WT GLP-1R", "method": "(§1) For homogeneous binding, cells were washed twice and incubated with a blocking buffer (F12 supplemented with 33 mM HEPES, and 0.1% (w/v) BSA, pH 7.4) for 2 h at 37 °C. […] Cells were washed three times with ice-cold PBS and lysed using 50 μL of lysis buffer (PBS supplemented with 20 mM Tris–HCl and 1% Triton X-100, pH 7.4). Subsequently, the plates were counted for radioactivity (counts per minute, CPM) in a scintillation counter (MicroBeta^2 Plate Counter, PerkinElmer, Waltham, MA, USA) using a scintillation cocktail (OptiPhaseSuperMix; PerkinElmer, Waltham, MA, USA)."}, "GLP-1R [2]": {"target": "T1, GLP-1R", "details": "for Modulation of GLP-1-elicited cAMP accumulation / GLP-1 potency (in words): GLP-1R expressing CHO-K1 cells", "method": "(§2) cAMP accumulation was measured using the LANCE Ultra cAMP kit (PerkinElmer, Boston, MA, USA) according to the manufacturer’s instructions. […] Cells were then resuspended with assay buffer (DMEM, 0.1% BSA, 5 mM HEPES) and seeded onto 384-well plates (6 × 10^5/mL, 5 μL/well). […] After the addition of 5 μL of Eu-cAMP tracer and ULight-anti-cAMP, the reactions were stopped. The plates were left for 1 h at room temperature to measure time-resolved FRET signals at excitation wavelengths of 620 nm and 665 nm by EnVision (PerkinElmer, Waltham, MA, USA)."}, "GLP-1R [3]": {"target": "T1, GLP-1R", "assay": "cell-based", "method": "as §2"}, "GLP-1R C347F mutant [4]": {"target": "T2, GLP-1R C347F mutant (Homo sapiens, UniProt P43220, C347F)", "T2 construct": "expressed in transfected cells", "T2 sequence (P43220 24-463 C347F)": "as the sequence (P43220 24-463) above, with C324F counted along it", "details": "cited from earlier work"}, "GLP-1R [5]": {"target": "T1, GLP-1R", "assay": "cell-based", "remark": "listed apart in the source", "method": "as §1"}, "GLP-1R C347F mutant [6]": {"target": "T2, GLP-1R C347F mutant", "assay": "Whole cell binding assay, competition with radiolabeled GLP-1 at mutant GLP-1R", "method": "as §1"}, "[7]": {"details": "Table 4, analogues of new PAMs, competition with 125I-GLP-1"}, "[8]": {"details": "Table 3, PAMs, competition with 125I-GLP-1 (40 pM), whole cells"}, "[9]": {"details": "Table 3, PAMs from LBVS, relative to maximal response of GLP-1 at WT receptor"}, "[10]": {"details": "Table 1, NAMs, competition with 125I-GLP-1 (40 pM), whole cells"}, "[11]": {"details": "Table 1, NAMs from SBVS, relative to maximal response of GLP-1 at WT receptor"}},
  "note": "Where two headings read alike, the source gives them in different places.",
  "data": [
    {"molecule": "CCC(C)N(CC(=O)N(Cc1cccn1Cc1ccccc1)C1CCCCC1)C(=O)C1CCC1", "note": "(stereo not drawn) [CD3532-B002]", "values": [
      {"measurement": "Binding Span ± SEM", "setting": "GLP-1R [1]; [7]", "result": "N.B. ^c"},
      {"measurement": "Binding pIC50 ± SEM", "setting": "GLP-1R [1]; [7]", "result": "N.B. ^c"},
      {"measurement": "cAMP Accumulation Emax (% WT)", "setting": "GLP-1R [2]; Table 4, analogues of new PAMs", "result": "92.2 ± 3.9", "unit": "% WT"},
      {"measurement": "EC50", "setting": "GLP-1R [3]", "result": 15.8, "unit": "µM"}
    ]},
    {"molecule": "CCCCN(CC(=O)N(Cc1cccn1Cc1ccccc1)C1CC1)C(=O)C1CCCC1", "note": "[CD3559-D005]", "values": [
      {"measurement": "Binding Span ± SEM", "setting": "GLP-1R [1]; [7]", "result": "35.25 ± 11.50"},
      {"measurement": "cAMP Accumulation Emax (% WT)", "setting": "GLP-1R [2]; Table 4, analogues of new PAMs", "result": "78.2 ± 13.6", "unit": "% WT"}
    ]},
    {"molecule": "O=C(Cn1c(COc2ccccc2)nc2ccccc21)Nc1ccc(Cc2nnn[nH]2)cc1", "note": "[C10]", "values": [
      {"measurement": "Binding Span ± SEM", "setting": "GLP-1R [1]; [8]", "result": "76.17 ± 16.21"},
      {"measurement": "cAMP Accumulation Emax (% WT)", "setting": "GLP-1R [2]; [9]", "result": "92.93 ± 4.4", "unit": "% WT"}
    ]},
    {"molecule": "O=C(CSc1nnc[nH]1)Nc1sc2c(c1C(=O)NCc1ccccc1)CCCC2", "note": "[C31]", "values": [
      {"measurement": "Binding Span ± SEM", "setting": "GLP-1R [1]; [8]", "result": "−102.5 ± 6.85"},
      {"measurement": "cAMP Accumulation Emax (% WT)", "setting": "GLP-1R [2]; [9]", "result": "91.0 ± 0.95", "unit": "% WT"}
    ]},
    {"molecule": "COc1ccccc1NS(=O)(=O)c1cc(NC(=O)c2ccc(=O)n(C)n2)ccc1N1CCCC1", "note": "[C22]", "values": [
      {"measurement": "Binding Span ± SEM", "setting": "GLP-1R [1]; [8]", "result": "−135.7 ± 8.4"},
      {"measurement": "cAMP Accumulation Emax (% WT)", "setting": "GLP-1R [2]; [9]", "result": "96.9 ± 4.56", "unit": "% WT"}
    ]},
    {"molecule": "COc1ccc(S(=O)(=O)Nc2cccc(C(=O)Nc3cc(C)on3)c2)cc1", "note": "[JK1719-D011]", "values": [
      {"measurement": "Binding Span ± SEM", "setting": "GLP-1R [1]; [7]", "result": "59.69 ± 15.13"},
      {"measurement": "Effect on binding of GLP-1 to GLP-1R (in words)", "setting": "GLP-1R [1]", "result": "weakened the ligand binding"},
      {"measurement": "cAMP Accumulation Emax (% WT)", "setting": "GLP-1R [2]; Table 4, analogues of new PAMs", "result": "126.1 ± 4.2", "unit": "% WT"}
    ]},
    {"molecule": "CC(C)(C)Nc1nc2cc(Cl)c(Cl)cc2nc1S(C)(=O)=O", "note": "[compound 2, 6,7-dichloro-3-methanesulfonyl-2-tert-butylamino-quinoxaline]", "values": [
      {"measurement": "Binding at C347F mutant (in words)", "setting": "GLP-1R C347F mutant [4]", "result": "abolishment"}
    ]},
    {"molecule": "CN(CC(=O)N1CCC(C(=O)O)CC1)C(=O)c1cccn1CCc1ccccc1", "note": "[C11]", "values": [
      {"measurement": "Binding Span ± SEM", "setting": "GLP-1R [1]; [8]", "result": "−46.37 ± 5.83"},
      {"measurement": "Modulation of GLP-1-elicited cAMP accumulation / GLP-1 potency (in words)", "setting": "GLP-1R [2]", "result": "positively modulated GLP-1 potency"},
      {"measurement": "IC50", "setting": "GLP-1R [5]", "result": 8.91, "unit": "µM"}
    ]},
    {"molecule": "Cc1ccc(-c2nn(-c3ccccc3)cc2C(=O)Nc2cccc(-n3cnnn3)c2)o1", "note": "[C23]", "values": [
      {"measurement": "Binding Span ± SEM", "setting": "GLP-1R [1]; [8]", "result": "N.B. ^d"},
      {"measurement": "Binding pIC50 ± SEM", "setting": "GLP-1R [1]; [8]", "result": "N.B. ^d"},
      {"measurement": "Modulation of GLP-1-elicited cAMP accumulation / GLP-1 potency (in words)", "setting": "GLP-1R [2]", "result": "positively modulated GLP-1 potency"},
      {"measurement": "cAMP Accumulation Emax (% WT)", "setting": "GLP-1R [2]; [9]", "result": "98.5 ± 3.6", "unit": "% WT"},
      {"measurement": "EC50", "setting": "GLP-1R [3]", "result": 15.8, "unit": "µM"}
    ]},
    {"molecule": "CCOc1ccc(S(=O)(=O)Nc2ccccc2C(=O)OCC(=O)Nc2cc(C)on2)cc1", "note": "[C13]", "values": [
      {"measurement": "cAMP Accumulation Emax (% WT)", "setting": "GLP-1R [2]; [9]", "result": "76.6 ± 6.24", "unit": "% WT"}
    ]},
    {"molecule": "O=C(O)c1cccc(NN=Cc2cn(-c3ccccc3)nc2-c2cc3ccccc3o2)c1", "note": "[Z21]", "values": [
      {"measurement": "Binding Span ± SEM", "setting": "GLP-1R [1]; [10]", "result": "75.3 ± 12.57"},
      {"measurement": "Effect on binding of GLP-1 to GLP-1R (in words)", "setting": "GLP-1R [1]", "result": "decreased the binding of GLP-1 to GLP-1R"},
      {"measurement": "Modulation of GLP-1-elicited cAMP accumulation / GLP-1 potency (in words)", "setting": "GLP-1R [2]", "result": "negatively modulated"},
      {"measurement": "cAMP Accumulation Emax (% WT)", "setting": "GLP-1R [2]; [11]", "result": "97.02 ± 0.81", "unit": "% WT"}
    ]},
    {"molecule": "COc1ccc(NC(=O)c2n[nH]c3ccc([N+](=O)[O-])cc23)cc1NS(=O)(=O)c1ccc(F)cc1", "note": "[C26]", "values": [
      {"measurement": "Binding Span ± SEM", "setting": "GLP-1R [1]; [8]", "result": "−82.09 ± 13.44"},
      {"measurement": "cAMP Accumulation Emax (% WT)", "setting": "GLP-1R [2]; [9]", "result": "89.4 ± 3.72", "unit": "% WT"}
    ]},
    {"molecule": "O=C(Nc1ccc(Cl)cc1)Nc1snnc1C(=O)Nc1ccc(C(=O)O)cc1", "note": "[Z42]", "values": [
      {"measurement": "Binding Span ± SEM", "setting": "GLP-1R [1]; [10]", "result": "N.B. ^d"},
      {"measurement": "Binding pIC50 ± SEM", "setting": "GLP-1R [1]; [10]", "result": "N.B. ^d"},
      {"measurement": "Binding at C347F mutant (in words)", "setting": "GLP-1R C347F mutant [6]", "result": "enhanced the ligand binding"},
      {"measurement": "Modulation of GLP-1-elicited cAMP accumulation / GLP-1 potency (in words)", "setting": "GLP-1R [2]", "result": "negatively modulated"},
      {"measurement": "cAMP Accumulation Emax (% WT)", "setting": "GLP-1R [2]; [11]", "result": "99.72 ± 0.80", "unit": "% WT"}
    ]},
    {"molecule": "Cc1ccc(NS(=O)(=O)c2ccc(NC(=O)c3n[nH]c4c3COc3ccccc3-4)cc2)cc1", "note": "[CD1652-A009]", "values": [
      {"measurement": "Binding Span ± SEM", "setting": "GLP-1R [1]; [7]", "result": "51.92 ± 9.60"},
      {"measurement": "cAMP Accumulation Emax (% WT)", "setting": "GLP-1R [2]; Table 4, analogues of new PAMs", "result": "114.9 ± 8.6", "unit": "% WT"},
      {"measurement": "IC50", "setting": "GLP-1R [5]", "result": 4.07, "unit": "µM"}
    ]}
  ]
}
